Data set [1] deals with unprenylated Rap1A (uRap1A). Kind of data set: Prenylation assay: Western blot for unprenylated Rap1A in J774.2 macrophages. As to conditions: 10 or 100 μM, 24 h, FIG. 5A-C. The format is cell-based, mouse. Here is the method:
To determine the effect of fluorescent BP probes on protein prenylation, J774.2 mouse macrophages were plated out at 2×10^5 cells/mL in 24-well plates and left to adhere overnight. Cells were then treated with 10 or 100 μM of fluorescent analogues of RIS, dRIS, and ZOL, the respective native BP, or vehicle, for 24 h. Cells were lysed in radioimmunoprecipitation buffer, and proteins were separated by sodium dodecyl sulfate polyacrylamide gel electrophoresis and transferred to polyvinyl difluoride membranes by western blotting. Membranes were then incubated with antibodies to the unprenylated form of Rap1A (uRap1A) and the housekeeping protein β-actin, which were detected by incubation with fluorescently-labeled secondary antibodies and scanning of membranes on a LI-COR Infrared Imager. Results shown are representative of 2 independent experiments. The ratio between abundance of unprenylated RaplA and β-actin is indicated for each sample below the blots in FIG. 5.
A general note: In western blotting, separated proteins are transferred to a membrane and probed.

Another data set concerns J774.2 macrophages. Kind of data set: J774.2 cell viability assay (AlamarBlue). In kind it is cell-based, mouse. The following applies: J774.2 macrophages, 10, 100 or 500 μM, 48 h; FIG. 5D-F. As for the experimental part: To determine the effect of fluorescent BP analogues on cell viability, J774.2 mouse macrophages were plated at 2×10^5 cells/mL in 96-well plates and left to adhere overnight. Cells were then treated with 10, 100 or 500 μM of fluorescent analogues of RIS, dRIS, and ZOL, the respective native BP, or vehicle, for 48 h. At the end of the incubation period, AlamarBlue reagent was added to each well and incubation continued for a further 3 h. Fluorescence was detected on a plate reader, and expressed as percent of vehicle control. Results are shown as mean±SD of ≧2 independent experiments, performed at least in duplicate.

Data set [2] can be described thus: UV-VIS absorption and fluorescence emission spectra. The format is physicochemical. As to conditions: 0.1M phosphate buffer (1x PBS for 7d5); ± 1 nm error. Here is the method:
All labeled samples were dissolved in water and diluted with 0.1 M phosphate buffer or 1×PBS (for 7d5). Assuming that the labeled bisphosphonates have the same extinction coefficient (E) as the carboxylic acid of the free fluorescent label, the final concentrations for all labeled products were calculated from UV-VIS absorption spectra at λ=493 nm (ε=73000 M^−1 cm^−1 at pH 7.2) for FAM conjugates (7a1-7a3, 7b1, 7c1, 7d1-7d2, 7e1-7e2, 7f1-7f2), λ=567.5 nm (ε=114850 M^−1cm^−1 at pH 7.5) for RhR-X conjugates (7a4, 7b2, 7c2), λ=580 nm (c=72000 M^−1cm^−1 at pH 8.0) for ROX conjugates (7a5, 7b3), λ=648 nm (ε=240000 M^−1cm^−1 at pH 7.2) for AF647 conjugates (7a6, 7b4, 7d3), λ=774 nm (ε=240000 M^−1cm^−1 at pH 7.4) for 800CW conjugates (7d4), λ=644 nm (ε=271000 M^−1cm^−1 at pH 7.4, 1×PBS) for Sulfo-Cy5 conjugates (7d5).
Emission spectra for FAM and RhR-X conjugates were recorded using an excitation wavelength of 490 nm or 520 nm, respectively. Emission spectra for AF647 conjugates and Sulfo-Cy5 conjugates were recorded using an excitation wavelength of 600 nm. Emission spectra of 5(6)-ROX conjugates were recorded using an excitation wavelength of 575 nm. Emission spectra of IRDye CW800 conjugate was recorded using an excitation wavelength of 750 nm. The set-up of excitation slit, emission slit, integration time and increment were determined to get optimal spectra for each compound respectively, depending on the sample concentration and spectrometer used.

Data set [3] in a line: Hydroxyapatite (HAP) column chromatography binding assay. As to conditions: pH 6.8, phosphate gradient 1 to 1000 mM; FIG. 3. Here is the method: The fast performance liquid chromatography (FPLC) system consisted of a Waters 650E advanced protein purification system (Millipore Corp., Waters chromatography division, Milford, Mass.), a 600E system controller and a 484 tunable absorbance detector for UV absorbance assessment. Ceramic hydroxyapatite [HAP, […], Macro-Prep® Ceramic Hydroxyapatite Type II 20 μm 100 g, Bio-Rad Laboratories, Inc. Hercules, Calif.] was equilibrated with 1 mM phosphate buffer (pH 6.8) and packed in a 0.66 cm (diameter)×6.5 cm (length) glass column (Omnifit, Bio-chem Valve™ inc., Cambridge, U.K.), which was attached to the Waters 650E advanced protein purification system. Each sample was prepared in 1 mM potassium phosphate buffer, and 100 μL of 1 mM (0.1 μmol) sample was injected into the FPLC system. As a consequence, the compounds were absorbed and subsequently eluted at a flow rate of 2 ml/min by using a linear concentration gradient of phosphate from 1 to 1000 mM at pH 6.8. Fractions of each sample were collected in 80 tubes using an automated fraction collector (Gilson, France) and then used for subsequent ultraviolet (SPECTRAmax PLUS 384, Molecular Devices, CA) or fluorescence spectrometry detection (WALLAC VICTOR™, 1420 MULTILABEL COUNTER, Perkin Elmer, USA). […] The elution profile for each sample was determined in triplicate for statistical analysis (Prism, GraphPad Software, USA). […]

The conditions of data set [4]: pH 7.0, 0.1M phosphate buffer; assumed the same as the corresponding fluorescent dye; cited from earlier work.

Consider `CC1(C)C(C=CC=CC=C2N(CCCS(=O)(=O)O)c3ccc(S(=O)(=O)O)cc3C2(C)CCCCCC(=O)NCC(O)C[n+]2cccc(CC(O)(P(=O)(O)O)P(=O)(O)O)c2)=[N+](CCCS(=O)(=O)O)c2ccc(S(=O)(=O)O)cc21` (centres unmarked) [AF647-RIS, 2-(5-(3-(6-((2-hydroxy-3-(3-(2-hydroxy-2,2-diphosphonoethyl)pyridin-1-ium-1-yl)propyl)amino)-6-oxohexyl)-3-methyl-5-sulfo-1-(3-sulfopropyl)indolin-2-ylidene)penta-1,3-dien-1-yl)-3,3-dimethyl-5-sulfo-1-(3-sulfopropyl)-3H-indol-1-ium], for which, in data set [1], the “accumulation of unprenylated Rap1A (anti-prenylation activity)” value was “did not show accumulation of unprenylated Rap1A”. In addition, the viable cell number entry with J774.2 macrophages is on record as “modest decreases in viable cell number at high concentrations”. In addition, in data set [2], the “Maximum absorption wavelength (λmax (abs), nm)” value amounted to 648 nm and the “Maximum emission wavelength (λmax (em), nm)” value is 666 nm. Further, in data set [3], the “HAP binding affinity (retention time on HAP column, normalized to RIS)” value was “largest relative decrease of HAP affinity compared to other fluorescent RIS conjugates, but still retains strong absolute binding affinity”. The Extinction coefficient in data set [4] is given as 240,000 (pH 7.0) M^−1cm^−1.

Regarding `CC1(C)C(/C=C/C2=C(Oc3ccc(S(=O)(=O)O)cc3)C(=C/C=C3/N(CCCCS(=O)(=O)[O-])c4ccc(S(=O)(=O)[O-])cc4C3(C)C)/CCC2)=[N+](CCCCCC(=O)NCC(O)C[n+]2ccn(CC(O)(P(=O)(O)O)P(=O)(O)O)c2)c2ccc(S(=O)(=O)O)cc21` (centres unmarked) [Compound 800CW-ZOL, (E)-2-((E)-2-(3-((E)-2-(1-(6-((2-hydroxy-3-(1-(2-hydroxy-2,2-diphosphonoethyl)-1H-imidazol-3-ium-3-yl)propyl)amino)-6-oxohexyl)-3,3-dimethyl-5-sulfo-3H-indol-1-ium-2-yl)vinyl)-2-(4-sulfophenoxy)cyclohex-2-en-1-ylidene)ethylidene)-3,3-dimethyl-1-(4-sulfonatobutyl)indoline-5-sulfonate], the “accumulation of unprenylated Rap1A (anti-prenylation activity)” value in data set [1] is “did not show accumulation of unprenylated Rap1A”. Further, the viable cell number result with J774.2 macrophages is “modest decreases in viable cell number at high concentrations”. Moreover, in data set [2], the “Maximum absorption wavelength (λmax (abs), nm)” value is reported as 774 nm and the “Maximum emission wavelength (λmax (em), nm)” value worked out at 789 nm. The Extinction coefficient in data set [4] is 240,000 (pH 7.0) M^−1cm^−1.

These data come from patent US20180064829A1, “FLUORESCENT BISPHOSPHONATE ANALOGS” (University of Southern California, priority 2015, published 2018).
